According to EP4640207A1, “AQUEOUS COMPOSITION AND EXTERNAL PREPARATION FOR SKIN” (Resonac Corporation, priority 2022, dated 2024):
Read-outs that look alike come from different tables or passages of the source. Values belong to the compound of their own block, whether it stands above or below them.

What was measured:
claudin 1 (CLDN1) gene = assay: Expression of TJ-related gene CLDN1 in UVB-irradiated NHEK cells, quantitative real-time PCR; type: cell-based, human; settings: for fold induction at 10 µM: Homo sapiens, light or radiation study, read-out: Expression level of gene (relative value) CLDN1 gene
Protocol: (§1) • (Confirmation of activity of aqueous composition with δ-TPG and HD: effect of promoting expression of TJ-related gene) • Normal human epidermal keratinocytes (NHEK, manufactured by KURABO INDUSTRIES LTD.) were subjected to the same operation as in Experimental Example 2 to obtain evaluation cells.
(§2) Total RNA was extracted from the evaluation cells thus obtained, and cDNA was synthesized. Subsequently, quantitative real-time PCR was carried out using the above-described cDNA as a template, and the expression levels of the claudin 1 (CLDN1) gene and occludin (OCL) gene in the NHEK cells were quantified. In addition, the expression level of GAPDH was quantified as an internal standard gene. The expression levels of the CLDN1 gene and OCL gene were standardized with reference to the expression level of the GAPDH gene in the NHEK cells. As a primer for amplifying the GAPDH gene, a primer GAPDH (ID: HA067812) manufactured by Takara Bio Inc. was used. As a primer for amplifying the CLDN1 gene, a primer CLDN1 (ID: HA103348) manufactured by Takara Bio Inc. was used. As a primer for amplifying the OCL gene, a primer OCL (ID: HA036753) manufactured by Takara Bio Inc. was used.
(§3) The same operation as described above was performed using, instead of δ-TPG, α-TPG, TPA, δ-TP, or α-TP to obtain evaluation cells. The expression levels of the CLDN1 gene and OCL gene were measured for these evaluation cells by the same operation as described above.
(§4) The expression level of each gene was determined as a relative value when the expression level of each gene in reference cells was set to 1. The reference cells were prepared by the same operation as the reference cells in Experimental Example 2.
(§5) The expression levels of the CLDN1 gene and OCL gene in comparative cells were determined by the same method as described above. The comparative cells were prepared by the same operation as the comparative cells in Experimental Example 2.

TRPV4 gene = assay: cells; type: cell-based, human; settings: for fold induction at 10 µM: Homo sapiens, NHEK, light or radiation study, read-out: Expression level of TRPV4 gene (relative value); for Expression level of TRPV4 gene (relative value): nhek cells, 10 µM
Protocol: • (Confirmation of activity of aqueous composition containing δ-TPG and HD: expression of TRPV4 gene) • Normal human epidermal keratinocytes (NHEK, manufactured by KURABO INDUSTRIES LTD.) were seeded in a plastic petri dish at a seeding density of 10,000 cells/cm^2, and cultured for 24 hours in a normal human epidermal keratinocyte serum-free culture medium (manufactured by KURABO INDUSTRIES LTD.).
8.94 g of water, 1.0 g of HD, and 0.06 g of δ-TPG were mixed and stirred to obtain an aqueous composition. The above-described aqueous composition was added to a culture solution in which the above-described NHEK cells had been cultured for 24 hours, such that the final concentration of δ-TPG was 10 µM.
After adding the δ-TPG, the above-described culture solution was further cultured for 48 hours. Thereafter, the culture solution was irradiated with UVB at 60 mJ/cm^2 using a UVB irradiation device of UVP, LLC. Thereafter, a fresh normal human epidermal keratinocyte growth medium was added to the above-described culture solution, and the culture was further carried out for 24 hours. In this manner, evaluation cells were obtained.
Total RNA was extracted from the evaluation cells obtained above, and cDNA was synthesized. Subsequently, quantitative real-time PCR was carried out using the above-described cDNA as a template, and the expression level of the TRPV4 gene in the NHEK cells was quantified. The expression level of glyceraldehyde 3-phosphate dehydrogenase (GAPDH) was quantified as an internal standard gene. […] The expression level of the TRPV4 gene was standardized with reference to the expression level of the GAPDH gene in the NHEK cells. As a primer for amplifying the GAPDH gene, a primer GAPDH (ID: HA067812) manufactured by Takara Bio Inc. was used. As a primer for amplifying the TRPV4 gene, a primer TRPV4 (ID: HA186338) manufactured by Takara Bio Inc. was used.
The same operation as described above was carried out using, instead of δ-TPG, D-α-tocopheryl glucoside (hereinafter, may be abbreviated as "α-TPG"), tocopherol acetate (FUJIFILM Wako Pure Chemical Corporation; hereinafter, may be abbreviated as "TPA"), δ-tocopherol (Sigma-Aldrich Co., LLC; hereinafter, may be abbreviated as "δ-TP"), or α-tocopherol (SEIKO-EPSON CORPORATION; hereinafter, may be abbreviated as "α-TP"), thereby obtaining evaluation cells. The expression level of the TRPV4 gene was measured for these evaluation cells by the same operation as described above.
The expression level of the TRPV4 gene was determined as a relative value when the expression level of the TRPV4 gene in reference cells was set to 1. The reference cells were prepared by culturing the NHEK cells without adding a test compound to the cell culture solution and without irradiating the cells with UVB. HD was added to the cell culture solution of the reference cells so that the HD concentration in the cell culture solution was the same as that in the culture solution when δ-TPG was added and cultured. The culture conditions for the NHEK cells were the same as those when δ-TPG was added, except that δ-TPG was not added and UVB irradiation was not carried out.
Comparative cells were prepared by culturing the NHEK cells by not adding the test compound to the cell culture solution and irradiating the cells with UVB. […] The expression level of the TRPV4 gene in the comparative cells was determined by the same method as described above.

occludin (OCL) gene = assay: Expression of TJ-related gene OCL in UVB-irradiated NHEK cells, quantitative real-time PCR; type: cell-based, human; settings: for fold induction at 10 µM: Homo sapiens, light or radiation study, read-out: Expression level of gene (relative value) OCL gene
Protocol: as §1, §2, §3, §4, §5

[1] = system: skin model (model "EP1-200"); assay: TJ-forming ability evaluation test: transepidermal water loss (TEWL) of skin model; type: cell-based; settings: cultured 24 hours
Protocol: A skin model (model "EP1-200", manufactured by KURABO INDUSTRIES LTD.) was pre-cultured for 1 hour under the conditions of 37°C and 5% CO2. Subsequently, δ-TPG dissolved in a 0.5% by mass HD aqueous solution at a concentration of 0.2% by mass was added to the surface of the skin model, and the skin model was further cultured for 24 hours. Subsequently, δ-TPG was removed, the sample was washed three times with a phosphate buffer solution, and the transepidermal water loss (TEWL) was measured. A cyclone water vaporizer (manufactured by ASCH JAPAN Co.,Ltd.) was used for measuring the TEWL.
TEWL was measured by performing the same operation as described above using TPA instead of δ-TPG.
For comparison, a 0.5% by mass HD aqueous solution not containing δ-TPG instead of δ-TPG dissolved in a 0.5% by mass HD aqueous solution was used, and the same operation as described above was performed to measure the TEWL.
The same operation as described above was performed using δ-TP dissolved in 1% by mass of HD at a concentration of 0.2% by mass, instead of δ-TPG dissolved in 0.5% by mass of HD, and the TEWL was measured.
It was confirmed that TEWL was suppressed in the group in which δ-TPG was added. […]

[2] = Confirmation of solubility of tocopheryl glucoside (visual observation of vials); settings: aqueous composition not containing HD
Protocol: The solubility of the D-δ-tocopheryl glucoside (hereinafter, may be abbreviated as "δ-TPG") was examined.
9.9 g of each of the mixtures was placed in individual vials, 0.01 g of solid δ-TPG was added to each vial, and the mixture was stirred at room temperature. After stirring for 1 hour, the state of each vial was observed.

[3] = NHEK cells, final concentration 10 µM, UVB 60 mJ/cm^2 performed, relative to reference cells (HD, no UVB) = 1, standardized to GAPDH
[4] = 0.2% by mass in 0.5% by mass HD aqueous solution on skin model surface

- Expression level of gene (relative value) CLDN1 gene (claudin 1 (CLDN1) gene; [3]): 1.24
- Expression level of TRPV4 gene (relative value) (TRPV4 gene): 0.77
- Expression level of gene (relative value) OCL gene (occludin (OCL) gene; [3]): 3.24
Compound: D-α-tocopheryl glucoside [α-TPG/HD]

- solubility of tocopheryl glucoside [2]: not sufficiently dissolved
Compound: tocopheryl glucoside

- Expression level of gene (relative value) CLDN1 gene (claudin 1 (CLDN1) gene; nhek cells, 10 µM): 1.00
- Expression level of TRPV4 gene (relative value) (TRPV4 gene): 0.54
- Expression level of gene (relative value) OCL gene (occludin (OCL) gene; nhek cells, 10 µM): 1.91
Compound: δ-tocopherol [δ-TP/HD]
- TEWL ([1]; 0.2% by mass in 1% by mass of HD on skin model surface): 8.2 ± 1.2 g/(h·m^2)

More lines, now with the values behind:

Compound: CC(=O)Oc1c(C)c(C)c2c(c1C)CCC(C)(CCCC(C)CCCC(C)CCCC(C)C)O2 (stereo not shown) [TPA/HD, tocopherol acetate]
- fold induction at 10 µM (claudin 1 (CLDN1) gene; [3]): 0.77
- fold induction at 10 µM (TRPV4 gene): 0.29
- fold induction at 10 µM (occludin (OCL) gene; [3]): 1.12
- TEWL [1, 4]: 12.4 ± 0.8 g/(h·m^2)

Compound: Cc1c(C)c2c(c(C)c1O)CCC(C)(CCCC(C)CCCC(C)CCCC(C)C)O2 (stereo not drawn) [α-TP/HD, α-tocopherol]
- fold induction at 10 µM (claudin 1 (CLDN1) gene; NHEK): 1
- fold induction at 10 µM (TRPV4 gene): 0.43
- fold induction at 10 µM (occludin (OCL) gene; NHEK): 2.48

Compound: Cc1cc(OC2OC(CO)C(O)C(O)C2O)cc2c1OC(C)(CCCC(C)CCCC(C)CCCC(C)C)CC2 [δ-TPG, D-δ-tocopheryl glucoside]
- fold induction at 10 µM (claudin 1 (CLDN1) gene; [3]): 1.28
- fold induction at 10 µM (TRPV4 gene): 0.83
- fold induction at 10 µM (occludin (OCL) gene; [3]): 3.45
- TEWL [1, 4]: 7.9 ± 1.7 g/(h·m^2)
